In paper PMC11904221 (EMBO Molecular Medicine, 2025):
≈ marks a conversion by molar mass, not a printed value. Where “and” joins values, the source holds several entries; their conditions need not be identical. Equal entries are not always repeated. Where two headings read alike, the source gives them in different places. Where a SMILES comes first, the peptide text is derived from it.

Tests used:
CT-26 tumors = format: in vivo; conditions: Appendix Fig. S13
Text: (§1) Tumor growth, apoptosis, proliferation, and/or the angiogenic index of the developed tumors were first evaluated.
(§2) (A) Scheme and workflow of apelin-dm preclinic studies. […] (B–D) Error bars indicate s.e.m. center values indicate mean (Mann–Whitney U test). […] The percentage of relative staining intensity corresponding to CD31, Ki67, and BIM expression in CT-26 and MC-38 tumors of treated mice are shown in (I–N). Scale bar, 100 µm. Data represent mean ± s.e.m. of 3–4 independent experiments. P values were calculated with the Student t test in GraphPad. […] Quantification of tumor area (P) and vascularized area (Q) relative to control untreated CAMs (n = 3 CAM per group) assigned 100%. Data represent mean ± s.e.m. P values were calculated with the Student t test in GraphPad. […] (S, T) The average blood flow expressed in % relative to blood flow measured in […] (S) and MDA-MB231 (T) developed tumors. Data represent mean ± s.e.m. of 3–4 independent experiments. P values were calculated with the Student t test in GraphPad. Source data are available online for this figure.
Additional experiments involved injecting 1 × 10^6 control CT-26/MC-38/MDA-MB231 cells into BALB/c, C57BL/6, or nude mice, respectively. […] LASER Doppler imaging assessed total blood flow, with FlowR® Hemodynamics visualization used for analysis. Results were expressed as % relative to pre-treatment tumor blood flow.

in vivo = conditions: both sexes, BALB/c, mouse, ip
Procedure: Pharmacological profile of APLN-DM peptide
Maximal Tolerated Dose (MTD) study of APLN -DM in mice
Six groups comprising six Balb/C mice per group (3 males and 3 females) were assigned to the study. In each gender, one control group (1 Male (M)/1 female (F)) received the reference solution (vehicle) and 5 […]
mg/kg (4M/4F), 2000 mg/kg (5M/5F) and 1500 mg/kg (6M/6F). APLN-DM peptide was administrated via intra-peritoneal (IP) single injection at day 1 followed by observation during 14 days. During the study, mortality, morbidity, general clinical signs and bod y weight were recorded. In the end of the study pathology and organ necropsy examination were performed. Thereby, APLN-DM peptide and vehicle were administered to mice according to Table-1 and their effects were analyzed according to Table-2.
Each test item dose was administrated to 3 female and 3 male mice. The administration was performed IP at a dose volume of 10 ml/kg. Dosing was performed according to Figure-1 and each increase in dose pending on the outcome of the previous dose (results of clinical signs). The lag time between the increasing doses was approximately 48h.
No. (n=) Mouse# Treatment Dose Level administration administratio […]
Table-1. Study design -1. […], […]
Study Day* Procedure Body Weight Clinical Mortality & Organ
Sign Morbidity observation
2-14 - Twice weekly Once -
15 Termination √ √ Gross pathology
Figure 1 - Decisional tree for successive dosing for MTD determination […]
At study termination, body weight (Figure 2 and Figure 3) and gross pathology abnormalities were analyzed in all animals. Main pathological finding were blood clots in intestine and chest cavity. Treatment-related clinical adverse side effects (purple tail, lethargy, decreased motor activity) were observed also in groups treated either with 200, 500, 1000 and 1500 mg/kg. The tail recovered a normal color after 1 hour in all dose groups. […]
abnormalities were detected in all male and female animals from these groups at the scheduled termination […]

[1] = Pharmacokinetic profile in mice, LC/MS; format: in vivo, mouse; conditions: Balb/C mice plasma, LC/MS, estimated from the 5 and 10 min samples
Procedure: Pharmacokinetic profile of APLN-DM in mice
The aim of the current study was to evaluate pharmacokinetic properties of APLN-DM peptide administrated intravenously (IV) or intraperitoneously (IP) in Balb/C mice. […]
for the IP group). Development of quantification method was performed using liquid chromatography coupled to mass spectrometry (LC/MS).
Results: Samples obtained in vivo were analyzed according to quantification-developed method and the peptide was detectable until 15 minutes after administration. Analysis allowed determining that APLN-DM […]
All animals were divided to three groups of 27 animals, one of 12 animals and one of 3 animals (vehicle) and will receive the corresponding test item according to Table 1. Each animal was weighed and administered at the appropriate volume.
Concentration ROA Blood Individual animal numbers
Group No. Treatment Dose Collect
Table 11 - Group allocation
Development of analytic method
Standard range from 0.5 to 100 µM was prepared and analysed for each fragmented ion as previously […]
Standard curves obtained for each ion are represented in Figure 6.
Figure 8: Standard curves obtained by quantification of each fragmented ion The best linearity was obtained by quantifying the fragmented ion 785 (z=5).
Quantification of APLN-DM in samples
Summary of analytical method development:
Quantification method was performed according to previous work. In summary, samples were analysed with a LC-MS triple quadripole system (ESI QqQ). The chromatographic system was a UPLC activity (Waters) coupled to a mass spectrometer TSQ Quantum Ultra (Thermo) equipped with triple quadripole analyser and electrospray ionisation (ESI) system. The selected column was Kinetex F5 […] 50x2.1 mm (Phenomenex). The analysis was made by quantifying fragmented ion z=5 (m/z=785) in samples compared […]
quantitation was previously determined to be 0.5 µM. Samples were analysed after protein precipitation as […]
In vivo phase samples analysis
As the stability of peptide is low, even in frozen plasma, it was decided to re-run the in vivo phase for the highest dose and to use freshly prepared samples.
26 samples were used for analysis.
Only samples taken 5 and 10 minutes after peptide administration presented detectable concentrations (see
Table 9). While 15 min results were on the level of accuracy (linearity threshold values). At a later time […]
estimated based on the 5 and 10 min measurements.
Sample ID Area Calculated amount

in vitro [2] = test: in vitro
in vitro [3] = test: in vitro; remark: listed apart in the source
[4] = pH 7.4
in vitro [5] = conditions: human
[6] = liver microsomes
Furin = Furin (Homo sapiens, UniProt P09958)
apelin receptor [7] = target: T1, apelin receptor (Homo sapiens, UniProt P35414); test: Radioligand binding assay; set-up: purchased Euroscreen FAST-020B; conditions: competition with [125I]-(Pyr1)-apelin-13, apelin receptor membrane extracts 2 μg protein/well, 96-well plates
T1 sequence (P35414 1-380): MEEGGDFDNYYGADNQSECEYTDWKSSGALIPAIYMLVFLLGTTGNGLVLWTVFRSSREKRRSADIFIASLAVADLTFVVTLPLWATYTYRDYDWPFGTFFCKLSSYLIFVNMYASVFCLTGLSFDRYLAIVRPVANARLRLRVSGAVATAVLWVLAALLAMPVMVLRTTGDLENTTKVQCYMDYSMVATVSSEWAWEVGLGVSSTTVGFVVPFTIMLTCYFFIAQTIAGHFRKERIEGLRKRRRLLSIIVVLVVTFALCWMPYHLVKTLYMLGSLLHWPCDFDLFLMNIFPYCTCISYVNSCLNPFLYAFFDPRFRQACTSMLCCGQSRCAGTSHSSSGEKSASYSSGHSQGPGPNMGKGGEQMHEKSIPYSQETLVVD
Procedure: (§3) Scale bar, 50 µm. (C) Radioligand binding assay. […] Data are representative of three independent experiments and data shown as the mean ± s.e.m. […] The signals were sorted from high (red) to low (blue) intensity/phosphorylation. […] Source data are available online for this figure.
Dose-response curves were established and the estimated IC50 values were calculated for each compound.

apelin receptor [8] = target: T1, apelin receptor; test: Plasmon waveguide resonance (PWR) ligand binding; set-up: expressed in transfected cells; host or cells: HEK cells overexpressing apelin receptor (membrane fragments); conditions: HEK-apelin receptor cell membrane fragments on polylysine-treated sensor, 22 °C, n = 3
Text: (§4) Red arrows indicate the direction of vessel formation. […] All data are representative of three independent experiments. […] The two Furin cleavage sites are shown. […] (S–U) Plasmon waveguide resonance (PWR). […] Source data are available online for this figure.

retinal vasculature = test: Retina angiogenesis assay; format: in vivo, mouse; set-up: unit not given here; conditions: P5 mice, isolectin B4, individual values; control 74-89
Text: as §4
Angiogenesis is a complex intercellular process involving the organization of various cells.
Following the treatment period, the mice were humanely euthanized, and their eyes were harvested. […] The retinas were carefully isolated and fixed in 4% PFA for 2 h at room temperature or overnight at 4 °C. After fixation, the retinas were blocked and permeabilized in a solution containing 1% bovine serum albumin (BSA) and 0.5% Triton X-100 overnight at 4 °C. Subsequently, the retinas were washed three times with a buffer solution composed of 0.5% Triton X-100, 1 mM CaCl2, 1 mM MgCl2, and 1 mM MnCl2 in PBS, pH 6.8. The retinas were then incubated with FITC-labeled Isolectin B4 (1:1000; Vector Laboratories) to label blood vessels. Following staining, the retinas were embedded in Tissue-Tek OCT Compound, and 10-μm cryosections were cut. Confocal immunofluorescence images were acquired with an inverted Nikon C2si Eclipse Ti-S microscope and analyzed using NIS-ElementsAR software (Nikon Instruments Europe B.V.).

CT-26 cells on CAM = test: CAM implanted with CT-26 cells, tumor and vascularized area; format: in vivo, chick; conditions: individual values
Text: as §1, §2
Fertilized eggs were allowed to mature ex ovo. […] Immunohistology in toto was performed for vessel staining.

CT-26 and MC-38 tumors = test: Subcutaneous tumor growth of cells stably expressing APLN or APLN-DM; format: in vivo, mouse
[9] = system: chick chorioallantoic membrane; test: Chick chorioallantoic membrane (CAM) angiogenesis assay; conditions: 48 h, 100 nM each, individual CAM, n = 8; control 99-131
Procedure: Fertilized eggs were allowed to mature ex ovo. […] Immunohistology in toto was performed for vessel staining. Images of CAM vessels were acquired using a Zeiss Axiophot microscope.

CT-26 and MC-38 cells = test: Soft agar, proliferation and apoptosis of cells expressing APLN or APLN-DM; conditions: cancer cells expressing the construct
Procedure: For the apoptosis assay, tumor cells were grown to 70% confluency, washed repeatedly to remove serum, and then incubated for the indicated time periods in serum-free media. Cells were washed and stained with FITC-labeled Annexin V using the FITC Annexin V Apoptosis Detection Kit I (BD Pharmingen^TM), according to the manufacturer’s instructions.
P values by two-tailed unpaired t-test.

AKT and ERK = test: Phosphorylation of AKT and ERK in HUVEC, SMC, CT-26, HEK 293; format: cell-based; conditions: HUVECs, SMCs, CT-26 cells, HEK-293 cells
Text: as §3

Sequence of Furin (P09958 108-794, species assumed): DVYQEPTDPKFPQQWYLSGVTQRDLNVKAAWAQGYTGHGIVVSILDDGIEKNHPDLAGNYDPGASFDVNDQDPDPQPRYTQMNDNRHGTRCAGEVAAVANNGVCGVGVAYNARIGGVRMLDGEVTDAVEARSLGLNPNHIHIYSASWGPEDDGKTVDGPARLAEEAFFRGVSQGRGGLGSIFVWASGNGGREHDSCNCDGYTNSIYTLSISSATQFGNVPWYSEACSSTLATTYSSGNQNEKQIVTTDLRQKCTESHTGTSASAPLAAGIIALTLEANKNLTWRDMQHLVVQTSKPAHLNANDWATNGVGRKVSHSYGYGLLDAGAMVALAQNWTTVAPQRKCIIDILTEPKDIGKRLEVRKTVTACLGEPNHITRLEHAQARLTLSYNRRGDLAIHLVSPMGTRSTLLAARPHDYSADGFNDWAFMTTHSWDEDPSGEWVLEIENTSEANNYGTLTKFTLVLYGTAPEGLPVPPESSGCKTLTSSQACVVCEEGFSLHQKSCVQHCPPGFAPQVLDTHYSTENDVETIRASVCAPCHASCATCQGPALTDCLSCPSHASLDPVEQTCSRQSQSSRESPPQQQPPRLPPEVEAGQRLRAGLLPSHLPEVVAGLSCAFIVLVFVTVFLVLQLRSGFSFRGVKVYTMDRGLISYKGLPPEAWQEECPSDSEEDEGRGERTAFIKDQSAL

With `CSCC[C@H](NC(=O)[C@@H]1CCCN1C(=O)CNC(=O)[C@H](CCCCN)NC(=O)[C@H](Cc1c[nH]cn1)NC(=O)[C@H](CO)NC(=O)[C@H](CC(C)C)NC(=O)[C@H](CCCNC(=N)N)NC(=O)[C@@H]1CCCN1C(=O)[C@H](CCCNC(=N)N)NC(=O)[C@H](CCC(N)=O)NC(=O)[C@H](CO)NC(=O)[C@H](CO)NC(=O)[C@H](Cc1ccccc1)NC(=O)[C@H](CCCCN)NC(=O)[C@H](CO)NC(=O)[C@H](CO)NC(=O)CNC(=O)CNC(=O)[C@H](CCC(N)=O)NC(=O)[C@H](Cc1c[nH]c2ccccc12)NC(=O)[C@@H]1CCCN1C(=O)CNC(=O)[C@@H]1CCCN1C(=O)CNC(=O)[C@H](CC(N)=O)NC(=O)[C@H](CCCNC(=N)N)NC(=O)[C@H](CO)NC(=O)CNC(=O)[C@H](CCCNC(=N)N)NC(=O)[C@@H]1CCCN1C(=O)[C@H](CCC(N)=O)NC(=O)[C@@H](NC(=O)[C@@H](N)CC(C)C)C(C)C)C(=O)N1CCC[C@H]1C(=O)N[C@@H](Cc1ccccc1)C(=O)O` [apelin-dm] (H-LVQPRGSRNGPGPWQGGSSKFSSQRPRLSHKGPMPF-OH) the “toxicity in treated tumor-bearing mice” value (CT-26 tumors) was “no obvious toxicity in treated mice was observed”, the MTD at 336 h (in vivo) was greater than 1000 mg/kg and the “half-life in vivo in mice” value [1] was 20 min. The “% Protein bound, Mean” value (in vitro [2]) was 54%, the fraction unbound (in vitro [2]; plasma) was roughly 0.5 and the “% Protein bound, Mean” value (in vitro [3]) was 26%. For the same compound, the “Solubility, Mean” value [4] was 187.3 µM (≈ 734 µg/mL), the “Half-life, Mean” value (in vitro [5]) was 1121 min and the half-life (in vitro [5]; plasma) was greater than 1080 min. For the same compound, the “Intrinsic clearance in liver microsomes” value [6] was less than 115.5 µL/min/mg, the “cleavage by Furin” value (Furin) was “more stable and not cleaved” and the IC50 (apelin receptor [7]) was 0.45 nM and 0.47 nM. For the same compound, the Kd (apelin receptor [8]) was roughly 0.03 nM.
In the case of “APLN: wild-type APLN stably expressed in CT-26 or MC-38 cells by lentiviral vector (QRPRLSHKGPMPF)”, the retina vascularization (retinal vasculature) is reported as 84.9099 and 86.8403 and 90.0489 and 88.5208 and 85.3624 and 89.8292 and 92.0113 and 89.1254 and 85.4258 and 94.4967 and 90.4185 and 89.0824 and 95.2514 and 99.1254 and 85.2991 and 91.6992 and 83.1786 and 91.7618 and 93.6101, the “CAM CT-26 quantification (Fig5P file)” value (CT-26 cells on CAM; same data as sheet 5N) is reported as 168 and 189 and 190 and the “CAM CT-26 quantification (sheet 5N)” value (CT-26 cells on CAM; tumor or vascularized area not given) is reported as 168 and 189 and 190. It also gave a tumor volume (CT-26 and MC-38 tumors; expressing cells, Rag2/γc, day 8, control 60.45, in mm³ (unit assumed)) of 180.48, a tumor volume (CT-26 and MC-38 tumors; expressing cells, Rag2/γc, day 11, control 142, in mm³ (unit assumed)) of 571 and a tumor volume (CT-26 and MC-38 tumors; expressing cells, Rag2/γc, day 13, control 583.25, in mm³ (unit assumed)) of 974.2. The tumor volume (CT-26 and MC-38 tumors; expressing cells, Rag2/γc, day 15, control 887.52, in mm³ (unit assumed)) was 1295.1, the tumor volume (CT-26 and MC-38 tumors; expressing cells, Rag2/γc, day 18, control 1263.6, in mm³ (unit assumed)) was 2221 and the tumor volume (CT-26 and MC-38 tumors; expressing cells, Rag2/γc, day 20, control 2040.04, in mm³ (unit assumed)) was 2868. For the same compound, the tumor volume (CT-26 and MC-38 tumors; tumor cells stably expressing the construct, Rag2/γc mice (Fig 2C), day 7, control 38.75) was 39.12, the CAM vessel density [9] was 120 and 252 and 210 and 201 and 189 and 155 and 145 and 136 and the anchorage-independent growth (CT-26 and MC-38 cells) was “twofold increased”.
In the case of apelin, the “ERK and AKT activation” value (AKT and ERK) is reported as “activated ERK and AKT”.
